Assay results published in patent US11833160B2, “Ursodeoxycholic acid derivatives as HDAC inhibitors for the treatment of polycystic diseases” (UNIVERSIDAD DEL PAIS VASCO/EUSKAL HERRIKO UNIBERTSITATEA, priority 2017, dated 2023).
pIC50: −log10 of the molar value.

How the values were obtained:
human HDAC5 = molecular target: T1, human HDAC5 (Homo sapiens, UniProt Q9UQL6); experiment: HDAC5 enzymatic activity assay (fluorogenic peptide); assay type: biochemical; conditions: 10-dose, 3-fold serial dilution, triplicate
T1 construct: GST (N); purchased BioMol, Hamburg, Germany; host or cells: baculovirus / Sf9 cells
Method: Peptide substrates: all HDAC assays were performed using acetylated peptide substrates labeled with 7-amino-4-methylcoumarin (AMC): • Substrate for isoforms HDAC1, 2, 3, 6, 10, 11, and HeLa nuclear extract assays: acetylated fluorogenic peptide from p53 residues 379-382 (RHKKAc). • Substrate for isoforms HDAC4, 5, 7, 9: fluorogenic Boc-L-Lys (s-trifluoroacetyl)-AMC. • Substrate for HDAC8 assays: acetylated fluorogenic peptide from p53 residues 379-382 (RHKAcKAc).
50 μl of peptide substrate (see “peptide substrates” section above) and an optimal concentration of the corresponding enzyme (see “enzymes” section above) in the assay buffer at a final DMSO concentration of 1% were incubated in the presence of gradient concentrations of inhibitors (10-dose IC50 mode with 3-fold serial dilution) at 30° C. for 2 hours. The reactions were carried out in a 96-well microplate for fluorometry in a 50 μl reaction volume. After the deacetylation reaction, Fluor-de-Lys-Developer (BioMol Cat. #KI-105) was added to each well to digest the deacetylated substrate, thereby producing the fluorescent signal. The reaction was carried out for 45 minutes at 30° C. with 5% CO2; the fluorescent signal was then measured using an excitation wavelength of 360 nm and an emission wavelength of 460 nm in a microplate-reading fluorometer (GeminiXS, Molecular Devices, Sunnyvale, CA). […]

[1] = tested on: polycystic human cholangiocytes; experiment: CFSE proliferation protocol by flow cytometry; assay type: cell-based
Method: The proliferation of polycystic human cholangiocytes at 48 hours in the absence or presence of different doses of compound Ia (10, 50, 100, μM) in a quiescence culture medium was analyzed. To that end, the CFSE proliferation protocol (Invitrogen) was used using flow cytometry.

PCK rats = experiment: Chronic treatment of PCK rats (animal model of PLD), liver transaminase ALT; assay type: in vivo, rat; conditions: 7 mg/kg/day, 2 months
Method: PCK rats were chronically treated (2 months) with compound Ia (7 mg/kg/day).

OATP1B1 = molecular target: T2, OATP1B1 (Homo sapiens, UniProt Q9Y6L6); experiment: Uptake study, transporter OATP1B1 (data not shown); assay type: in vitro ADME
T2 construct: expressed in transfected cells
T2 sequence (Q9Y6L6 1-691): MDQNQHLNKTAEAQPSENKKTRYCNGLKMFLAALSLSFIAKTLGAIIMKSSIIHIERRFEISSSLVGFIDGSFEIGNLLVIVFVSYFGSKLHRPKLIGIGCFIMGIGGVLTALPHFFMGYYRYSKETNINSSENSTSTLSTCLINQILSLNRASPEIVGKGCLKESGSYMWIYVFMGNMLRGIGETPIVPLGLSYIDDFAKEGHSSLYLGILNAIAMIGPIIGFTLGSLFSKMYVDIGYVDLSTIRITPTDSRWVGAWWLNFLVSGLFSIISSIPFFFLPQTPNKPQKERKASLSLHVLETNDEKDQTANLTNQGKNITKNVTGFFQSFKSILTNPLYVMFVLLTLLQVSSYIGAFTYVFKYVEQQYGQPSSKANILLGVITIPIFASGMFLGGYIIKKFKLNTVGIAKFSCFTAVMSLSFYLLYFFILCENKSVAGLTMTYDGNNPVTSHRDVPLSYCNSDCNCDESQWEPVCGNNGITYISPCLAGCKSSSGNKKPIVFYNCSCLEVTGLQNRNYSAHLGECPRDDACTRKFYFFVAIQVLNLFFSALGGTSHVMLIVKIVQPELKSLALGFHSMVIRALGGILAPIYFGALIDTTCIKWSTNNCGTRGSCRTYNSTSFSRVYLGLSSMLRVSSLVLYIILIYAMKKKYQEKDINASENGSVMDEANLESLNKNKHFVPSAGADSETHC

[2] = tested on: polycystic human cholangiocytes; experiment: Primary cilium length (cilium staining, confocal microscopy), polycystic cells; assay type: cell-based; conditions: after treatment
Method: Cilium staining. Cells cultured on cover slips were washed with PBS, fixed with methanol, and blocked for one hour in a blocking buffer at room temperature. The γ-tubulin primary antibodies (1:100; Sigma-Aldrich, St Louis, MO) and acetylated α-tubulin primary antibodies (1:1000; Sigma-Aldrich) or IFT88 primary antibodies (1:100; ProteinTech, Rosemont, IL, USA) were incubated overnight at 4° C. After washing, Alexa Fluor 594 and 488 secondary antibodies were combined with the primary antibodies (Life Technologies, Carlsbad, CA, USA) and incubated for 2 hours at room temperature. The cover slips were placed on slides with Prolong Gold Antifade with Dapi (Invitrogen, Carlsbad, CA, USA). The slides were observed and images were taken using laser scanning confocal microscopy with a 60× objective (NIKON C1si Confocal Spectral Imaging System, NIKON Instruments Co., Melville, NY, USA). The field was magnified 4× to observe individual cilia. The images were opened with EZ-C1 3.90 Freeviewer and a scale bar was added. The images were converted to Tiff files and quantified using ImageJ Software. The scale bar saved in the image was measured and the scale established. Using the freehand tool, the cilia were traced and measurements taken.

T1 sequence (Q9UQL6 1-1123 isoform Q9UQL6-3): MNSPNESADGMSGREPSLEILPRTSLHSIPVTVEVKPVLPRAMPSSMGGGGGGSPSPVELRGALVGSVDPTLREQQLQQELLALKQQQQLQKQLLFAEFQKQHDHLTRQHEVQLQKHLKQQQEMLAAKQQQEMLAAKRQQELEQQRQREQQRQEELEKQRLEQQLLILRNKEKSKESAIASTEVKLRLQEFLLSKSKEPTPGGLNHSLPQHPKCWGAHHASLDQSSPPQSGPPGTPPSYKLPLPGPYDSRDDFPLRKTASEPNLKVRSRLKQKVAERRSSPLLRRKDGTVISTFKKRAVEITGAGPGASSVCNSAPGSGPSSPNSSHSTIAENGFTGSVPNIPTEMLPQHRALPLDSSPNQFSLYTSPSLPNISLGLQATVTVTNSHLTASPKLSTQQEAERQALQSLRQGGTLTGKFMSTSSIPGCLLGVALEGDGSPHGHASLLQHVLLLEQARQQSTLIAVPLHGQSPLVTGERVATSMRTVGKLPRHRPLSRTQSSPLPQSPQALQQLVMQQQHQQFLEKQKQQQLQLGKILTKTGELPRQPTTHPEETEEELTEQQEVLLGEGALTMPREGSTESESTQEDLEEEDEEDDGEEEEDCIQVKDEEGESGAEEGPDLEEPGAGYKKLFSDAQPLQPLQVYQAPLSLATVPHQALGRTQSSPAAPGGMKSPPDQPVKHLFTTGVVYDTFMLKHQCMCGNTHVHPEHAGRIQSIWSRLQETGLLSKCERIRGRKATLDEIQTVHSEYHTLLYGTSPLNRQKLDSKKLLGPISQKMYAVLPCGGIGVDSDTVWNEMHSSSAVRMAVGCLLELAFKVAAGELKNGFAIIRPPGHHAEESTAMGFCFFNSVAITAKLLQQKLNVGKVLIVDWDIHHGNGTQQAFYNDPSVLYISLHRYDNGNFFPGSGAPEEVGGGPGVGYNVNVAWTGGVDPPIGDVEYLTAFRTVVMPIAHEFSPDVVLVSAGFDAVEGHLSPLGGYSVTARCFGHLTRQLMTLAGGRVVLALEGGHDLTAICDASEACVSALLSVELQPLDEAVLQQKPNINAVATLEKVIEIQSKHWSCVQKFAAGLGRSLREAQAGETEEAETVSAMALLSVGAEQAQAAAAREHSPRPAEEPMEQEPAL

| SMILES | melting point | pIC50 (human HDAC5) | proliferation of polycystic human cholangiocytes ([1]; 48 hours, 10, 50, 100 μM, quiescence culture medium) | inhibition of proliferation compared with UDCA ([1]; 48 hours, UDCA at 100 μM) | levels of liver transaminase ALT (PCK rats) | transport through OATP1B1 (OATP1B1) | length of the cilia, polycystic human cholangiocytes [2] |
| --- | --- | --- | --- | --- | --- | --- | --- |
| C[C@H](CCC(=O)NCC(=O)NCc1ccc(C(=O)NO)cc1)[C@H]1CC[C@H]2[C@@H]3[C@@H](O)C[C@@H]4C[C@H](O)CC[C@]4(C)[C@H]3CC[C@]12C [Ib, 4-((2-((R)-4 ((3R,5S,7S,8R,9S,10S,13R,14S,17R)-3,7-dihydroxy-10,13-dimethylhexadecahydro-1H-cyclopenta[a]phenanthren-17-yl)pentanamide)acetamido)methyl)-N-hydroxybenzamide] | 153 to 155 °C |  |  |  |  |  |  |
| C[C@H](CCC(=O)NCc1ccc(C(=O)NO)cc1)[C@H]1CC[C@H]2[C@@H]3[C@@H](O)C[C@@H]4C[C@H](O)CC[C@]4(C)[C@H]3CC[C@]12C [Compound Ia] |  | 4.85 | inhibits the hyper-proliferation of polycystic human cholangiocytes in vitro in a dose-dependent manner | with a higher intensity than UDCA | significantly reduced | not through ASBT or OATP1B1 | significantly increased |
